The nature of the data set: Potency loss of actives infused into isomalt based candy at 300° F. The data set is classed as physicochemical.

Regarding `CCCCCc1cc(O)c2c(c1)OC(C)(C)c1ccc(C)cc1-2` [CBN, cannabinol], the “Potency loss %: 300° F. for 5 minutes, Infused by Quillaja extract emulsion” value is −1%; the “Potency loss %: 300° F. for 5 minutes, Infused by gum acacia emulsion” value was determined as 0%; the “Potency loss %: 300° F. for 15 minutes, Infused by Quillaja extract emulsion” value is −1%; the “Potency loss %: 300° F. for 15 minutes, Infused by gum acacia emulsion” value came to 0%.

As for `CCCCCc1cc(O)c2c(c1)OC(C)(C)[C@@H]1CCC(C)=C[C@@H]21` [THC, tetrahydrocannabinol, reference compound], the “Potency loss %: 300° F. for 5 minutes, Infused by Quillaja extract emulsion” value was −15%; the “Potency loss %: 300° F. for 5 minutes, Infused by gum acacia emulsion” value was −8%; the “Potency loss %: 300° F. for 15 minutes, Infused by Quillaja extract emulsion” value was −25%; the “Potency loss %: 300° F. for 15 minutes, Infused by gum acacia emulsion” value is −16%.

Take `C=CC(=C)CCC=C(C)C` [Myrcene, myrcene]: the “Potency loss %: 300° F. for 5 minutes, Infused by Quillaja extract emulsion” value was −26%; the “Potency loss %: 300° F. for 5 minutes, Infused by gum acacia emulsion” value is listed as −10%; the “Potency loss %: 300° F. for 15 minutes, Infused by Quillaja extract emulsion” value is recorded as −51%; the “Potency loss %: 300° F. for 15 minutes, Infused by gum acacia emulsion” value is recorded as −15%.

Take `C=C(C)[C@@H]1CCC(C)=C[C@H]1c1c(O)cc(CCCCC)cc1O` [CBD, cannabidiol, reference compound]: the “Potency loss %: 300° F. for 5 minutes, Infused by Quillaja extract emulsion” value is recorded as −5%; the “Potency loss %: 300° F. for 5 minutes, Infused by gum acacia emulsion” value was −3%; the “Potency loss %: 300° F. for 15 minutes, Infused by Quillaja extract emulsion” value is recorded as −4%; the “Potency loss %: 300° F. for 15 minutes, Infused by gum acacia emulsion” value is −2%.

`C=C(C)[C@H]1CC=C(C)CC1` [Limonene, limonene]: the “Potency loss %: 300° F. for 5 minutes, Infused by Quillaja extract emulsion” value is listed as −37%; the “Potency loss %: 300° F. for 5 minutes, Infused by gum acacia emulsion” value was −12%; the “Potency loss %: 300° F. for 15 minutes, Infused by Quillaja extract emulsion” value is recorded as −69%; the “Potency loss %: 300° F. for 15 minutes, Infused by gum acacia emulsion” value is −17%.

The values above are taken from patent US12144365B2, “Emulsions and derivatives for infusing hydrophobic active agents into an edible product” (priority 2021, dated 2024).
